Experimental data as given in US20180044422A1, “TREATING SOLID TUMOR BY TARGETING DECTIN-1 SIGNALING” (New York University, priority 2016, published 2018).

Key:
[1] = test system: bone-marrow derived macrophages (BMDM); test: Dectin-1 expression in bone-marrow derived macrophages; type: cell-based, mouse; conditions: cytokine added to day 8 BMDM cultures for 24h
[2] = test system: pancreatic oncogenesis in KC mice; test: KC mice endogenous pancreatic tumor model; type: in vivo, mouse; conditions: Dectin-1-/- mice, 20 mg/kg i.p. five times weekly, 8 weeks, vs vehicle
Source text: C57BL/6 (H-2Kb) mice were purchased from Jackson Labs (Bar Harbor, Me.) and bred in-house. KC and KPC mice develop pancreatic neoplasia endogenously by expressing mutant Kras alone or mutant Kras and p53, respectively, in the progenitor cells of the pancreas (Hingorani et al., Cancer Cell, 2003, 4, 437-450; Hingorani et al., Cancer Cell, 2005, 7, 469-483). Tumor progression and survival in control KC mice has been previously detailed (Daley et al., Cell, 2016, 166, 1485-1499). Dectin-1^−/− mice were crossed with KC mice to generate KC; Dectin-1^−/− animals. For orthotopic pancreatic tumor challenge, mice were administered intra-pancreatic injections of either Kras^G12D PDEC or FC1242 tumor cells derived from KPC mice. Kras^G12D PDEC and FC1242 cells were generated as previously described (Pylayeva-Gupta et al., Cancer Cell, 2012, 21, 836-847; Zambirinis et al., J Exp Med., 2015, 212, 2077-2094). […] Mice were sacrificed 3 weeks later and tumor weight recorded. […] PDEC proliferation was measured using the XTT assay according to the manufacturer's protocol (Roche, Nutley, N.J.). […]
For histological analysis, pancreatic specimens were fixed with 10% buffered formalin, dehydrated in ethanol, embedded with paraffin, and stained with H&E or Gomori's Trichrome. The fraction of preserved acinar area was calculated as previously described (Seifert et al., Nature, 2016, 532, 245-249). […]

[3] = test system: Dectin-1/Galectin-9 interaction; test: Galectin-9 immunoprecipitation with PNGase F or lactose treatment; type: binding; conditions: PNGase F pretreatment of Dectin-1 or 100 mM lactose pre-incubation of Galectin-9; SDS-PAGE
Description: Dectin-1 IgG Fc (8 μg; InvivoGen) was treated with PNGase F (20 μl, ˜10,000 units; New England Biolabs) following the company's non-denaturing protocol (37° C., 24 hr). PNGase F treated and untreated Dectin-1 IgG Fc samples (4 μg; InvivoGen) were added to protein G beads (25 μl, Dynabeads Protein G; novex) and the mixtures were incubated at room temperature for 10 min. The beads were washed 2× with PBS-T (pH 7.4 with 0.02% tween). Recombinant mouse Galectin-9 (4 μg; R&D Systems) was resuspended in PBS-T or a solution of 100 mM lactose in PBS-T. Galectin-9 samples were then incubated with the Dynabead/Dectin-1 IgG Fc complex for 20 min at room temperature. The Dynabeads were then washed 3× with PBS-T and transferred to a clean tube. Galectin-9 and Dectin-1 IgG Fc were eluted in SDS-PAGE buffer (PBS with 10% BME) by heating at 98° C. for 10 min. The samples were then analyzed by SDS-PAGE and stained with Coomassie Blue.

With TNF-α the “Dectin-1 expression in BMDM” value [1] was “did not influence Dectin-1 expression”.

In the case of “TGF-3: cytokine added to BMDM cultures; printed TGF-β in methods”, the “Dectin-1 expression in BMDM” value [1] is reported as “did not influence Dectin-1 expression”.

`Oc1cc(O)cc(/C=C/c2ccc(O)c(O)c2)c1` [Piceatannol] was tested, and the pancreatic tumor weight [2] was “no effect”.

With `OC[C@H]1O[C@@H](O[C@H]2[C@H](O)[C@@H](O)C(O)O[C@@H]2CO)[C@H](O)[C@@H](O)[C@H]1O` (stereo partly shown) [lactose] the “effect on Dectin-1/Galectin-9 binding” value [3] was “no alteration of the Dectin-1/Galectin-9 interaction”.
